Measurements taken from patent publication US7560468B2, “Substituted 1,4,8-triazaspiro[4,5]decan-2-one compounds” (Gruenenthal GmbH, priority 2004, dated 2009).

Tests used:
5-HT transporter = molecular target: T1, 5-HT transporter (Rattus norvegicus, UniProt P31652); assay: Inhibition of 5-HT uptake in synaptosomes; format: biochemical; settings: for inhibition at 1 µM: read-out: Uptake_5-HT, rat, 1 μM, % inhibition
T1 construct: from tissue; host or cells: rat brain synaptosomes (marrow/medulla and pons), P2 fraction

[1] = system: batrachotoxin (BTX) binding site of the sodium channel; assay: Affinity to the batrachotoxin (BTX) binding site of the sodium channel; settings: rat cerebrocortex synaptosomes, [3H]-batrachotoxinin A20 α-benzoate 10 nM; test concentration not given
NA transporter = assay: Inhibition of noradrenalin uptake in synaptosomes; format: biochemical

T1 sequence (P31652 whole entry): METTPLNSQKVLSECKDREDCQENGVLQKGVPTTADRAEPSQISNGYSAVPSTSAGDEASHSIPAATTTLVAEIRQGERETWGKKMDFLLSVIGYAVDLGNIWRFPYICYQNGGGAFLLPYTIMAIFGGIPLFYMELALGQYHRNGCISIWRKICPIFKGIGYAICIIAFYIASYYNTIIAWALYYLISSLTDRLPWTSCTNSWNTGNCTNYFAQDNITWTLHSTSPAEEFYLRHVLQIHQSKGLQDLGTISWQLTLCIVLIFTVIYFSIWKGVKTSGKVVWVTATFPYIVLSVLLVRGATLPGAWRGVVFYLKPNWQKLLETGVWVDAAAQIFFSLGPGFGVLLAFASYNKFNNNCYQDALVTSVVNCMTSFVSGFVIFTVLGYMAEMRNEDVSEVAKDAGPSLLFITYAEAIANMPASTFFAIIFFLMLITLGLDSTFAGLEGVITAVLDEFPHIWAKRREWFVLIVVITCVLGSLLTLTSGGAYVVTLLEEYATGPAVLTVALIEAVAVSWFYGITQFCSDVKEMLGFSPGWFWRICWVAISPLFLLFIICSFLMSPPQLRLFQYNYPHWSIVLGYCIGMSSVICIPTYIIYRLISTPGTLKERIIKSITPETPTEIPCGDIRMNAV

| Structure (SMILES) | inhibition at 1 µM (5-HT transporter) [%] | BTX Inhibition [1] | Uptake (NA), rat, 10 μM, % inhibition (NA transporter) [%] | Uptake_5-HT, rat, 1 μM, % inhibition (5-HT transporter) [%] |
| --- | --- | --- | --- | --- |
| CSCCC1NC2(CCN(C(=S)Nc3ccccc3C)CC2)N(Cc2ccc3ccccc3c2)C1=O (centres unmarked) [Example 151, 3-(2-Methylsulfanylethyl)-1-naphthalin-2-ylmethyl-2-oxo-1,4,8-triazaspiro[4,5]decan-8-thiocarboxylic acid o-tolylamide] | 64 | 84 | 42 | – |
| C#CCN1C(=O)C(Cc2ccccc2)NC12CCN(S(=O)(=O)c1ccccc1C(F)(F)F)CC2 (centres unmarked) [Example 39, 3-Benzyl-1-prop-2-ynyl-8-(2-trifluoromethylbenzolsulfonyl)-1,4,8-triazaspiro[4,5]decan-2-one] | – | 39 | 41 | 38 |
| CCOC(=O)CN1C(=O)C(Cc2ccccc2)NC12CCN(C(=S)NCC1CCCCC1)CC2 (centres unmarked) [Example 159, Ethyl[3-benzyl-8-(cyclohexylmethylthiocarbamoyl)-2-oxo-1,4,8-triazaspiro[4,5]dec-1-yl]-acetate] | 33 | 84 | 36 | – |
| CSCCC1NC2(CCN(C(=O)Nc3ccccc3)CC2)N(Cc2ccccc2C#N)C1=O (centres unmarked) [Example 224, 1-(2-Cyanobenzyl)-3-(2-methylsulfanylethyl)-2-oxo-1,4,8-triazaspiro[4,5]decan-8-carboxylic acid benzolamide] | – | 30 | 38 | 37 |
| CCOC(=O)CN1C(=O)C(Cc2ccccc2)NC12CCN(S(=O)(=O)Cc1ccccc1)CC2 (centres unmarked) [Example 68, Ethyl(3-benzyl-2-oxo-8-benzolmethansulfonyl-1,4,8-triazaspiro[4,5]dec-1-yl)acetate] | – | 47 | 31 | 69 |
| CCCCN1C(=O)C(CCSC)NC12CCN(C(=S)Nc1ccc(F)cc1)CC2 (centres unmarked) [Example 189, 1-Butyl-3-(2-methylsulfanylethyl)-2-oxo-1,4,8-triazaspiro[4,5]decan-8-thiocarboxylic acid (4-fluorobenzol)amide] | – | 41 | 30 | 66 |
| CCOC(=O)CN1C(=O)C(Cc2ccccc2)NC12CCN(C(=O)NCc1ccc(Cl)c(Cl)c1)CC2 (centres unmarked) [Example 225, Ethyl[3-benzyl-8-(3,4-dichlorobenzylcarbamoyl)-2-oxo-1,4,8-triazaspiro[4,5]dec-1-yl]-acetate] | 43 | 77 | 33 | – |
| COc1ccccc1NC(=S)N1CCC2(CC1)NC(Cc1ccccc1)C(=O)N2Cc1ccccc1F (centres unmarked) [Example 108, 3-Benzyl-1-(2-fluorobenzyl)-2-oxo-1,4,8-triazaspiro[4,5]decan-8-thiocarboxylic acid (2-methoxy-benzol)amide] | – | 86 | 31 | 86 |
| CCOC(=O)NC(=S)N1CCC2(CC1)NC(Cc1ccccc1)C(=O)N2Cc1ccccc1F (centres unmarked) [Example 174, Ethyl[3-benzyl-1-(2-fluorobenzyl)-2-oxo-1,4,8-triazaspiro[4,5]decan-8-carbothioyl]-carbamate] | 31 | 38 | 39 | – |
| CCCCN1C(=O)C(CCSC)NC12CCN(C(=O)NCc1ccc(Cl)c(Cl)c1)CC2 (centres unmarked) [Example 219, 1-Butyl-3-(2-methylsulfanylethyl)-2-oxo-1,4,8-triazaspiro[4,5]decan-8-carboxylic acid 3,4-dichlorobenzylamide] | 37 | 70 | 42 | – |
| C#CCN1C(=O)C(CC(C)C)NC12CCN(C(=S)Nc1cccc(C(C)=O)c1)CC2 (centres unmarked) [Example 163, 3-Isobutyl-2-oxo-1-prop-2-ynyl-1,4,8-triazaspiro[4,5]decan-8-thiocarboxylic acid (3-acetylbenzol)amide] | – | – | 34 | 38 |
| C=CCN1C(=O)C(C(C)C)NC12CCN(C(=O)Nc1ccc(OC(F)(F)F)cc1)CC2 (centres unmarked) [Example 220, 1-Allyl-3-isopropyl-2-oxo-1,4,8-triazaspiro[4,5]decan-8-carboxylic acid (4-trifluoromethoxy-benzol)amide] | – | 44 | 39 | 39 |
| CCOC(=O)CN1C(=O)C(Cc2ccccc2)NC12CCN(S(=O)(=O)c1cc([N+](=O)[O-])ccc1C)CC2 (centres unmarked) [Example 46, Ethyl[3-benzyl-8-(2-methyl-5-nitrobenzolsulfonyl)-2-oxo-1,4,8-triazaspiro[4,5]dec-1-yl]-acetate] | – | 30 | 33 | 90 |
| CCCCN1C(=O)C(C(C)C)NC12CCN(C(=O)Nc1cccc(C(=O)OCC)c1)CC2 (centres unmarked) [Example 215, Ethyl 3-[(1-butyl-3-isopropyl-2-oxo-1,4,8-triazaspiro[4,5]decan-8-carbonyl)amino]-benzoate] | 29 | 51 | 33 | – |
| CCCCS(=O)(=O)N1CCC2(CC1)NCC(=O)N2Cc1ccc(C(=O)OC)cc1 [Example 53, Methyl 4-[8-(butan-1-sulfonyl)-2-oxo-1,4,8-triazaspiro[4,5]dec-1-ylmethyl]-benzoate] | 45 | 31 | 30 | – |
| CCCCN1C(=O)C(C(C)C)NC12CCN(C(=O)Nc1cc(OC)ccc1OC)CC2 (centres unmarked) [Example 216, 1-Butyl-3-isopropyl-2-oxo-1,4,8-triazaspiro[4,5]decan-8-carboxylic acid (2,5-dimethoxy-benzol)amide] | – | – | 30 | 46 |
| CCOC(=O)CN1C(=O)C(Cc2ccccc2)NC12CCN(S(=O)(=O)c1ccccc1C(F)(F)F)CC2 (centres unmarked) [Example 65, Ethyl[3-benzyl-2-oxo-8-(2-trifluoromethylbenzolsulfonyl)-1,4,8-triazaspiro[4,5]dec-1-yl]-acetate] | – | 51 | 33 | 71 |
| CSCCC1NC2(CCN(S(=O)(=O)c3ccc(C(C)=O)cc3)CC2)N(Cc2cccc(C#N)c2)C1=O (centres unmarked) [Example 10, 3-[8-(4-Acetylbenzolsulfonyl)-3-(2-methylsulfanylethyl)-2-oxo-1,4,8-triazaspiro[4,5]dec-1-ylmethyl]-benzonitrile] | – | – | 39 | 35 |
| COc1cc(C)c(S(=O)(=O)N2CCC3(CC2)NC(C(C)C)C(=O)N3Cc2ccccc2F)c(C)c1C (centres unmarked) [Example 11, 1-(2-Fluorobenzyl)-3-isopropyl-8-(4-methoxy-2,3,6-trimethylbenzolsulfonyl)-1,4,8-triazaspiro[4,5]decan-2-one] | – | – | 37 | 52 |
| O=C1NC2(CCN(S(=O)(=O)c3ccccc3F)CC2)NC1Cc1ccccc1 (centres unmarked) [Example 7, 3-Benzyl-8-(2-fluorobenzolsulfonyl)-1,4,8-triazaspiro[4,5]decan-2-one] | – | – | 32 | 54 |
| COc1ccccc1NC(=S)N1CCC2(CC1)NC(CCSC)C(=O)N2Cc1cccc(C#N)c1 (centres unmarked) [Example 184, 1-(3-Cyanobenzyl)-3-(2-methylsulfanylethyl)-2-oxo-1,4,8-triazaspiro[4,5]decan-8-thiocarboxylic acid (2-methoxy-benzol)amide] | – | 36 | 32 | – |
| CSCCC1NC2(CCN(C(=S)Nc3cccc(C)c3)CC2)N(Cc2ccccc2C#N)C1=O (centres unmarked) [Example 161, 1-(2-Cyanobenzyl)-3-(2-methylsulfanylethyl)-2-oxo-1,4,8-triazaspiro[4,5]decan-8-thiocarboxylic acid m-tolylamide] | – | 53 | 33 | – |
| CCCCN1C(=O)C(CCSC)NC12CCN(C(=S)Nc1c(F)c(F)c(F)c(F)c1F)CC2 (centres unmarked) [Example 173, 1-Butyl-3-(2-methylsulfanylethyl)-2-oxo-1,4,8-triazaspiro[4,5]decan-8-thiocarboxylic acid pentafluorobenzolamide-amide] | – | 40 | 45 | – |
| CSCCC1NC2(CCN(C(=S)NCC3CCCO3)CC2)N(Cc2ccc(F)cc2)C1=O (centres unmarked) [Example 168, 1-(4-Fluorobenzyl)-3-(2-methylsulfanylethyl)-2-oxo-1,4,8-triazaspiro[4,5]decan-8-thiocarboxylic acid (tetrahydrofuran-2-ylmethyl)amide] | – | 38 | 35 | – |
| COC(=O)c1ccccc1NC(=S)N1CCC2(CC1)NC(CCSC)C(=O)N2Cc1ccccc1C#N (centres unmarked) [Example 153, Methyl 2-{[1-(2-cyanobenzyl)-3-(2-methylsulfanylethyl)-2-oxo-1,4,8-triazaspiro[4,5]decan-8-carbothioyl]-amino}-benzoate] | – | 53 | 30 | – |
| CSCCC1NC2(CCN(C(=S)NCc3ccc(Cl)cc3)CC2)N(Cc2ccccc2C#N)C1=O (centres unmarked) [Example 193, 1-(2-Cyanobenzyl)-3-(2-methylsulfanylethyl)-2-oxo-1,4,8-triazaspiro[4,5]decan-8-thiocarboxylic acid 4-chlorobenzylamide] | – | 72 | 32 | – |
| CCOC(=O)CC(C)NC(=S)N1CCC2(CC1)NC(Cc1ccccc1)C(=O)N2C (centres unmarked) [Example 131, Ethyl 3-[(3-benzyl-1-methyl-2-oxo-1,4,8-triazaspiro[4,5]decan-8-carbothioyl)amino]-butyrate] | – | 42 | 42 | – |
| CC(C)C1NC2(CCN(C(=S)Nc3cc(F)ccc3F)CC2)N(Cc2ccccc2)C1=O (centres unmarked) [Example 157, 1-Benzyl-3-isopropyl-2-oxo-1,4,8-triazaspiro[4,5]decan-8-thiocarboxylic acid (2,5-difluorobenzol)amide] | – | 39 | 38 | – |
